According to the supplement of paper PMC6965134:
± gives the standard deviation of the averaged measurements.

Assay: TIMS collisional cross section (CCS, N2) of the lipid ion; higher = larger ion cross section
Conditions: ionization mode: positive, one isomer drawn

Row | TIMS collisional cross section (sample type: HeLa) [Å²] | TIMS collisional cross section (sample type: plasma) [Å²] | TIMS collisional cross section (sample type: Liver) [Å²] | SMILES
1 | – | – | 280.9 | CC/C=C\C/C=C\C/C=C\C/C=C\C/C=C\C/C=C\CCC(=O)O[C@H](COC(=O)CCCCCCCCCCCCCCC)COP(=O)(O)OCCN [PE 16:0_22:6@] (ion (formula + adduct): [C43H74NO8P+H] 1+)
2 | 278.6 | – | – | CC/C=C\C/C=C\C/C=C\C/C=C\C/C=C\C/C=C\CCC(=O)O[C@H](COC(=O)CCCCCCCCCCCCCCC)COP(=O)(O)OCCN [PE 16:0_22:6] (ion (formula + adduct): [C43H74NO8P+H] 1+)
3 | – | – | 268.7 | CCCCCC/C=C\CCCCCCCC(=O)OC[C@H](COP(=O)(O)OCCN)OC(=O)CCCCCCCCCCCCCCC [PE 16:1@_16:0] (ion (formula + adduct): [C37H72NO8P+H] 1+)
4 | – | – | 266 | CCCCC/C=C\C/C=C\C/C=C\CCCCC(=O)O[C@H](COC(=O)CCCCCCC/C=C\CCCCCC)COP(=O)(O)OCCN [PE 16:1@_18:3] (ion (formula + adduct): [C39H70NO8P+H] 1+)
5 | 262 | – | – | CCCCCC/C=C\CCCCCCCC(=O)OC[C@H](COP(=O)(O)OCCN)OC(=O)CCCCCCCCCCCCC [PE 16:1_14:0] (ion (formula + adduct): [C35H68NO8P+H] 1+)
6 | 268.7 | – | – | CCCCCC/C=C\CCCCCCCC(=O)OC[C@H](COP(=O)(O)OCCN)OC(=O)CCCCCCCCCCCCCCC [PE 16:1_16:0] (ion (formula + adduct): [C37H72NO8P+H] 1+)
7 | 268.3 | – | – | CCCCCC/C=C\CCCCCCCC(=O)OC[C@H](COP(=O)(O)OCCN)OC(=O)CCCCCCC/C=C\CCCCCCC [PE 16:1_17:1@] (ion (formula + adduct): [C38H72NO8P+H] 1+)
8 | 269.8 | – | 269.8 | CC/C=C\C/C=C\C/C=C\C/C=C\C/C=C\CCCC(=O)O[C@H](COC(=O)CCCCCCC/C=C\CCCCCC)COP(=O)(O)OCCN [PE 16:1_20:5@] (ion (formula + adduct): [C41H70NO8P+H] 1+)
9 | 280.4 | – | 280.35 ± 0.071 | CCCCC/C=C\C/C=C\C/C=C\C/C=C\CCCC(=O)O[C@H](COC(=O)CCCCCCCCCCCCCCCC)COP(=O)(O)OCCN [PE 17:0_20:4@] (ion (formula + adduct): [C42H76NO8P+H] 1+)
10 | – | – | 275.6 | CCCCC/C=C\C/C=C\C/C=C\C/C=C\CCCC(=O)O[C@H](COC(=O)CCCCCCC/C=C\CCCCCCC)COP(=O)(O)OCCN [PE 17:1_20:4] (ion (formula + adduct): [C42H74NO8P+H] 1+)
11 | 280.3 | – | – | CCCCCCCCCCCCCCCCCC(=O)OC[C@H](COP(=O)(O)OCCN)OC(=O)CCCCCCCCCCCCCCC [PE 18:0@_16:0] (ion (formula + adduct): [C39H78NO8P+H] 1+)
12 | – | 282.1 | 282.2 | CCCCCCCC/C=C\CCCCCCCC(=O)O[C@H](COC(=O)CCCCCCCCCCCCCCCCC)COP(=O)(O)OCCN [PE 18:0@_18:1] (ion (formula + adduct): [C41H80NO8P+H] 1+)
13 | – | 279 | – | CCCCC/C=C\C/C=C\C/C=C\CCCCC(=O)O[C@H](COC(=O)CCCCCCCCCCCCCCCCC)COP(=O)(O)OCCN [PE 18:0@_18:3] (ion (formula + adduct): [C41H76NO8P+H] 1+)
14 | 286.4 | – | 286.2 | CCCCCCCCCCCCCCCCCC(=O)OC[C@H](COP(=O)(O)OCCN)OC(=O)CCCCCCCCCCCCCCCCC [PE 18:0_18:0] (ion (formula + adduct): [C41H82NO8P+Na] 1+)
15 | 282.2 | – | – | CCCCCCCC/C=C\CCCCCCCC(=O)O[C@H](COC(=O)CCCCCCCCCCCCCCCCC)COP(=O)(O)OCCN [PE 18:0_18:1] (ion (formula + adduct): [C41H80NO8P+H] 1+)
16 | – | 279.8 | 279.7 | CCCCC/C=C\C/C=C\CCCCCCCC(=O)O[C@H](COC(=O)CCCCCCCCCCCCCCCCC)COP(=O)(O)OCCN [PE 18:0_18:2] (ion (formula + adduct): [C41H78NO8P+H] 1+)
17 | – | – | 278.7 | CCCCC/C=C\C/C=C\C/C=C\CCCCC(=O)O[C@H](COC(=O)CCCCCCCCCCCCCCCCC)COP(=O)(O)OCCN [PE 18:0_18:3@] (ion (formula + adduct): [C41H76NO8P+H] 1+)
18 | – | – | 289.3 | CCCCCCCC/C=C\CCCCCCCCCC(=O)O[C@H](COC(=O)CCCCCCCCCCCCCCCCC)COP(=O)(O)OCCN [PE 18:0_20:1] (ion (formula + adduct): [C43H84NO8P+H] 1+)
19 | 284.1 | – | 283.9 ± 0.37 | CCCCC/C=C\C/C=C\C/C=C\C/C=C\CCCC(=O)O[C@H](COC(=O)CCCCCCCCCCCCCCCCC)COP(=O)(O)OCCN [PE 18:0_20:4@] (ion (formula + adduct): [C43H78NO8P+H] 1+)
20 | – | 283.5 | 284.15 ± 0.49 | CCCCC/C=C\C/C=C\C/C=C\C/C=C\CCCC(=O)O[C@H](COC(=O)CCCCCCCCCCCCCCCCC)COP(=O)(O)OCCN [PE 18:0_20:4] (ion (formula + adduct): [C43H78NO8P+H] 1+)
21 | 285.5 | – | 285.6 | CC/C=C\C/C=C\C/C=C\C/C=C\C/C=C\C/C=C\CCC(=O)O[C@H](COC(=O)CCCCCCCCCCCCCCCCC)COP(=O)(O)OCCN [PE 18:0_22:6] (ion (formula + adduct): [C45H78NO8P+H] 1+)
22 | 286.2 | – | – | CCCCCCCC/C=C\CCCCCCCCCC(=O)O[C@H](COC(=O)CCCCCCC/C=C\CCCCCCCC)COP(=O)(O)OCCN [PE 18:1@_20:1] (ion (formula + adduct): [C43H82NO8P+H] 1+)

Further lines, the molecule ahead of its results:

Row | SMILES | TIMS collisional cross section (sample type: HeLa) [Å²] | TIMS collisional cross section (sample type: plasma) [Å²] | TIMS collisional cross section (sample type: Liver) [Å²]
23 | CCCCCC/C=C\CCCCCCCC(=O)O[C@H](CO/C=C\CCCCCCCCCCCCCCCC)COP(=O)([O-])OCC[N+](C)(C)C [PC P- 18:0@_16:1] (ion (formula + adduct): [C42H82NO7P+H] 1+) | 288.6 | – | –
24 | CCCCC/C=C\C/C=C\C/C=C\CCCCCCC(=O)O[C@H](CO/C=C\CCCCCCCCCCCCCCCC)COP(=O)([O-])OCC[N+](C)(C)C [PC P- 18:0@_20:3] (ion (formula + adduct): [C46H86NO7P+H] 1+) | – | 296.1 | –
25 | CCCCC/C=C\C/C=C\C/C=C\C/C=C\CCCCCC(=O)O[C@H](CO/C=C\CCCCCCCCCCCCCCCC)COP(=O)([O-])OCC[N+](C)(C)C [PC P- 18:0@_22:4] (ion (formula + adduct): [C48H88NO7P+H] 1+) | – | – | 300.4
26 | CC/C=C\C/C=C\C/C=C\C/C=C\C/C=C\C/C=C\CCC(=O)O[C@H](CO/C=C\CCCCCCCCCCCCCCCC)COP(=O)([O-])OCC[N+](C)(C)C [PC P- 18:0@_22:6] (ion (formula + adduct): [C48H84NO7P+H] 1+) | 297.1 ± 0.71 | – | –
27 | CC/C=C\C/C=C\C/C=C\C/C=C\C/C=C\CCCC(=O)O[C@H](CO/C=C\CCCCCCCCCCCCCCCCCC)COP(=O)([O-])OCC[N+](C)(C)C [PC P- 20:0@_20:5] (ion (formula + adduct): [C48H86NO7P+H] 1+) | 299.9 | – | –
28 | CC/C=C\C/C=C\C/C=C\C/C=C\C/C=C\C/C=C\CCC(=O)O[C@H](CO/C=C\CCCCCCCCCCCCCCCCCC)COP(=O)([O-])OCC[N+](C)(C)C [PC P- 20:0@_22:6] (ion (formula + adduct): [C50H88NO7P+H] 1+) | 304.8 | – | –
29 | CC/C=C\C/C=C\C/C=C\C/C=C\C/C=C\C/C=C\CCC(=O)O[C@H](COC(=O)CCCCCCCCCCCCCC)COP(=O)(O)OCCN [PE 15:0@_22:6] (ion (formula + adduct): [C42H72NO8P+H] 1+) | – | – | 275.7
30 | CCCCCCCC/C=C\CCCCCCCC(=O)O[C@H](COC(=O)CCCCCCCCCCCCCCC)COP(=O)(O)OCCN [PE 16:0@_18:1] (ion (formula + adduct): [C39H76NO8P+H] 1+) | – | 275.3 | 275.7
31 | CC/C=C\C/C=C\C/C=C\C/C=C\C/C=C\C/C=C\CCC(=O)O[C@H](COC(=O)CCCCCCCCCCCCCCC)COP(=O)(O)OCCN [PE 16:0@_22:6] (ion (formula + adduct): [C43H74NO8P+H] 1+) | – | 279.1 | –
32 | CCCCCCCCCCCCCCCC(=O)OC[C@H](COP(=O)(O)OCCN)OC(=O)CCCCCCCCCCCCC [PE 16:0_14:0@] (ion (formula + adduct): [C35H70NO8P+H] 1+) | 267.4 | – | –
33 | CCCCCCCC/C=C\CCCCCCCC(=O)O[C@H](COC(=O)CCCCCCCCCCCCCCC)COP(=O)(O)OCCN [PE 16:0_18:1] (ion (formula + adduct): [C39H76NO8P+H] 1+) | 275.3 | – | –
34 | CCCCC/C=C\C/C=C\CCCCCCCC(=O)O[C@H](COC(=O)CCCCCCCCCCCCCCC)COP(=O)(O)OCCN [PE 16:0_18:2] (ion (formula + adduct): [C39H74NO8P+H] 1+) | – | 273 | 272.9
35 | CC/C=C\C/C=C\C/C=C\CCCCCCCC(=O)O[C@H](COC(=O)CCCCCCCCCCCCCCC)COP(=O)(O)OCCN [PE 16:0_18:3@] (ion (formula + adduct): [C39H72NO8P+H] 1+) | – | – | 269.9
36 | CCCCC/C=C\C/C=C\C/C=C\C/C=C\CCCC(=O)O[C@H](COC(=O)CCCCCCCCCCCCCCC)COP(=O)(O)OCCN [PE 16:0_20:4] (ion (formula + adduct): [C41H74NO8P+H] 1+) | 276.1 ± 1.1 | – | 277.25 ± 0.49
37 | CCCCCC/C=C\CCCCCCCC(=O)OC[C@H](COP(=O)(O)OCCN)OC(=O)CCCCCCC/C=C\CCCCCC [PE 16:1_16:1] (ion (formula + adduct): [C37H70NO8P+Na] 1+) | 266.4 | – | –
